Reference: patent US6521431B1, “Biodegradable cross-linkers having a polyacid connected to reactive groups for cross-linking polymer filaments” (Access Pharmaceuticals, Inc., priority 1999, dated 2003)
Like-named read-outs stand apart in the source and are kept apart here. Each block holds one compound with its values, some of them ahead of it.

Experiments:
[1] = Degradation (degradative swelling) of HPMA-co-cross-linker hydrogels in buffer; settings: HPMA-co-XL gels, 1.5 mole % cross-linker, pH 7.3 buffer, 37° C.
Procedure: The gels in this section were made at a mole feed ratio of 1.5 mole % cross-linker, as a copolymer with 98.5 mole % HPMA. Before the gels were polymerized, three 1.0 mL plastic syringes to be used as a slab gel template were silylanized by briefly incubating them in a heptane solution containing Sigmacote and oven drying at 90° C.
The wire was held in place by a septa which was placed over the tip of the syringe, as the solution polymerized. This formed a hole in the center of the cylinder, which was later used as a place to insert a wire hanger for the initially brittle and finally fragile gel, in order to measure its swelling and degradation kinetics as a change of mass with time. Gelation occurred within one to five minutes and the syringe was allowed to sit for 4 hours at room temperature. At this point the wire was removed from the center of the solid and the end of the plastic syringe was removed with a razor blade. The plunger was then used to extrude the gel from the syringe in 100 μL increments which were cut into small cylinders as they hung out from the end of the syringe. The gels were then placed on tarred wire holders and the initial mass of the assembly was determined. The resulting clear isotropic gels had the composition of poly(HPMA-co-HPMAGlySuc) 98.5:1.5. The gels were then incubated in pH 5, 100 mM sodium acetate buffer for 24 hours. They were then charged into vials of differing pH to study the degradation kinetics.
The gels were placed in 15 mL vials containing 10 mL of buffers. The masses of wire holders were determined before the gels were placed on them. The original mass of the gel in its relaxed state was also known by subtraction from the total mass of the assembly. The original dry mass of the gel was determined by drying three gels in their relaxed state from each composition and determining the dry mass of the gel. These values were then used to calculate the inverse of the volume fraction of polymer in the gel (Qv) respectively, using the densities of the polymer and water. The incubation solutions were changed each time the gel was weighed. The gels were incubated in a gyratory water-bath shaker (New Brunswick Scientific, New Brunswick, N.J.). The temperature was regulated to be 37±2° C. and the shaker was set to 30 rotations per minute.
The property of the change of volume of the polymer network can be measured by weighing the gel at different time points.
Since the swelling is related to network cross-link density by weighing the macroscopic gels at various times throughout their swelling one can obtain information about the change in cross-link density and thus the rate of degradation.

[2] = Swelling of acrylic acid / cross-linker water absorbent gel in PBS; type: physicochemical; settings: acrylic acid gel cross-linked with HPMAGlySuc, after incubating in PBS pH 7.4 for 3 days
Procedure: To a 5 mL test tube was charged acrylic acid (675 μL, 9.85 mmol), water (1120 μL) and HPMAGlySuc (73 mg, 0.15 mmol) (5b). The cross-linker was weighed into the mixture as described earlier. The mixture was homogenized and APS was added (66.6 μL, […]) from a 2.43 M solution in water. This solution was again mixed. To this solution was added TMED (137 μL, 0.287 mmol) from a 2.10 M pH 7.0 solution in water. The mixture was vortexed rapidly for 15 seconds and the polymerizing solution was charged into two 1.0 mL syringes that acted as a mold for the polymerization. The syringes were allowed to sit for four hours. The gel was removed from the syringe and cut into pieces (^˜100 μL cylinders). The mass of the cylinder was recorded and placed in a 20 mL vial containing 18 mL of PBS at pH 7.4. The gels were incubated overnight with buffer. The next day the buffer was changed twice in order to keep a constant external pH as the gel was charged. After incubating in PBS for 3 days the gel has swollen with water to approximately 20 times the total initial polymer volume.

[3] = pH 7.3
[4] = Release of labeled macromolecule and labeled polymer backbone from degrading gel network; type: physicochemical; settings: pH 7.3, 37° C., monitored at 550 nm (FIG. 7)
From the text: Gels were formed by the same method as above, but in this case other compounds were included during the preparation of the gels to study the release of small molecules from the network. In one case, the network itself was labeled with a polymerizable derivative of tetramethyl rhodamine (TMRAHMAm) in order to show the release (degradation) of the network itself (see FIG. 6). In the other case fluorescent rhodamine labeled albumin (Molecular Probes, Eugene Oreg.) was included in the uncharged network to show diffusive release of a macromolecule from the network (see FIG. 7).
To a 3 mL test tube was charged TMRAHMAm (3.0 mg, 5.0 μmol; 30 μL of a 100 mg/mL solution in CHCl3) which was then placed under a 7 mtorr vacuum for 3 hours. […]
Gels were suspended in buffers of different pH's: All buffers were adjusted to the same ionic strength. The release of the rhodamine labeled albumin and the rhodamine labeled HPMA was monitored at 550 nm. 750 μL of the sample was removed from the vial and periodically measured on a spectrophotometer. […]
The examination of the release of macromolecules entrained in the polymer network provides another way to study the performance of these materials. […] Moreover, the release of a model macromolecular solute (TMRA-albumin, molecular weight of ^˜66,000 Da.) from the network is measured spectrophotometrically.

degradation / hydrolysis and swelling kinetics of the gel (in words) [1]: slower degradation than the glycolic
SMILES: C=C(C)C(=O)NCC(C)OC(=O)[C@H](C)OC(=O)CCC(=O)O[C@@H](C)C(=O)OC(C)CNC(=O)C(=C)C (stereo partly drawn) [HPMALacSuc, di(1S)-1-{[1-methyl-2-(2-methylprop-2-enoylamino)ethyl]oxycarbonyl}ethyl butane-1,4-dioate]

degradation / hydrolysis and swelling kinetics of the gel (in words) [1]: non-degradable
SMILES: C=C(C)C(=O)NCC(C)OC(=O)CCC(=O)OC(C)CNC(=O)C(=C)C (stereo not shown) [HPMASuc, bis-1-methyl-2-(2-methylprop-2enoylamino)ethyl-1,4-butanedioate, reference compound]

SMILES: C=C(C)C(=O)NCC(C)OC(=O)COC(=O)CCC(=O)OCC(=O)OC(C)CNC(=O)C(=C)C (stereo not shown) [HPMAGlySuc, di{[1-methyl-2-(2-methylprop-2-enoylamino)ethyl]oxycarbonyl}methyl butane-1,4-dioate]
swelling with water relative to total initial polymer volume [2]: approximately 20 times the total initial polymer volume

degradation / hydrolysis and swelling kinetics of the gel (in words) [3]: fastest hydrolysis and swelling kinetics
time to complete degradation of the gel [3]: about 5 days
SMILES: C=C(C)C(=O)NCC(C)OC(=O)COC(=O)COC(=O)CCC(=O)OCC(=O)OCC(=O)OC(C)CNC(=O)C(=C)C (stereo not shown) [HPMAGlyGlySuc, di[({[1-methyl-2-(2-methylprop-2-enoylamino)ethyl]oxycarbon-yl}methyl)oxycarbonyl]methylbutane-1,4-dioate]
release of rhodamine labeled HPMA polymer backbone [4]: largely occurs to the greatest extent at the onset of complete degradation of the polymer
release of rhodamine labeled albumin from the gel network [4]: more closely follows the swelling of the network
